Where only a bound is given, the exact number is not on record here.

In data set [1] the target is T1, Aryl hydrocarbon receptor (Homo sapiens, UniProt P35869).
T1 sequence (P35869 whole entry): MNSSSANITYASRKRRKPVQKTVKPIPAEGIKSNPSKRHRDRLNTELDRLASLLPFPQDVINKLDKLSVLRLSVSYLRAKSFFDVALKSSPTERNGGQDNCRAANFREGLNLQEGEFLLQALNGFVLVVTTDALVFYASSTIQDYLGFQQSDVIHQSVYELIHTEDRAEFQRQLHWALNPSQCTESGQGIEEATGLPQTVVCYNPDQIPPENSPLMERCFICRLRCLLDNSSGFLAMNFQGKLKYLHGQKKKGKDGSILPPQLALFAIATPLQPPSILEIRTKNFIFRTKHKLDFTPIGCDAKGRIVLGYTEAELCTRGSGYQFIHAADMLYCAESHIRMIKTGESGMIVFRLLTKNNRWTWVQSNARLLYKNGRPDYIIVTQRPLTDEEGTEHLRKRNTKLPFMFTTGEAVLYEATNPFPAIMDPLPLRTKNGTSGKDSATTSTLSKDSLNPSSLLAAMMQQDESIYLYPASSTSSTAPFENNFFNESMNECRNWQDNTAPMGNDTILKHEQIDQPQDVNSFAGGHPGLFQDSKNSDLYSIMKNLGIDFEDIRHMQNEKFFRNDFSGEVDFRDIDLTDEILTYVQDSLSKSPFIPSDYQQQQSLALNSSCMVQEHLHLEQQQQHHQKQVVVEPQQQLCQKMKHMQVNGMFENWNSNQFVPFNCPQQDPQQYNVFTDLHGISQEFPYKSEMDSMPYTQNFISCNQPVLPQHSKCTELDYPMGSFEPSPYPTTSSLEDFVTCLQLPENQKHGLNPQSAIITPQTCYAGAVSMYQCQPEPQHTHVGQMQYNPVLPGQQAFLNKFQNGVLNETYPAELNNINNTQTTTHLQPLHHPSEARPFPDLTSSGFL
Nature of the data set: Activation of AhR in human HepG2 cells assessed as fluorescence after 24 hrs incubation by EROD assay. It is filed as cell-based.

For data set [2], the species on record is Homo sapiens. Nature of the data set: Half life in human. To be noted: in vivo. It is filed as ADME, organism-based.
Data set [3] addresses T2, Aryl hydrocarbon receptor (AhR) (Homo sapiens, UniProt P35869).
T2 sequence (P35869 whole entry): T1 sequence (P35869 whole entry)
Briefly: Activation of AhR in human HepG2 cells assessed as fluorescence after 24 hrs incubation at 10 nM by EROD assay relative to control. Format: cell-based. As to conditions: read-out: FC.

`Clc1ccc2[nH]cc(Cc3cc4ccccc4[nH]3)c2c1`: in data set [1], the EC50 – broadly, the concentration giving half of the maximal effect – is > 6.7 µM.
In turn, `Clc1cc2c(cc1Cl)Oc1cc(Cl)c(Cl)cc1O2` [2,3,7,8-TETRACHLORODIBENZO-P-DIOXIN] returned a t1/2 in data set [2] of 7 yr.
Consider `O=Cc1c(Cc2c[nH]c3ccc(Cl)cc23)[nH]c2ccccc12`, for which the fold induction at 24 h, 0.01 µM in data set [3] amounted to 5.
With `Cn1cc(Cc2[nH]c3ccccc3c2C=O)c2ccccc21`, the fold induction at 24 h, 0.01 µM in data set [3] is 6.

The values are drawn from ChEMBL document CHEMBL3351857, “Synthesis and biological evaluation of 2,3'-diindolylmethanes as agonists of aryl hydrocarbon receptor” (Bioorg Med Chem Lett, 2014).
